{
  "source": "patent US20220265792A1",
  "about": "“METHODS FOR TREATING SOLID TUMORS” (Breakbio Corp., priority 2019, published 2022)",
  "origin": "cited, not measured here",
  "molecules": {"B1": {"name": "FLT3L: FMS-like tyrosine kinase 3 ligand, expands and mobilizes antigen presenting cells (protein, UniProt P49771 27-235, looked up)", "Fms-related tyrosine kinase 3 …": "TQDCSFQHSPISSDFAVKIRELSDYLLQDYPVTVASNLQDEELCGGLWRLVLAQRWMERLKTVAGSKMQGLLERVNTEIHFVTKCAFQPPPSCLRFVQTNISRLLQETSEQLVALKPWITRQNFSRCLELQCQPDSSTLPPPWSPRPLEATAPTAPQPPLLLLLLLPVGLLLLAAAWCLHWQRTRRRTPRPGEQVPPVPSPQDLLLVEH"}},
  "key": {"Renal Cell Carcinoma": {"system": "Renal Cell Carcinoma", "settings": "human, in vivo"}, "Treg cells": {"system": "Treg cells", "settings": "50 mg bid seven days, seven days off, another seven days of 50 mg bid"}, "mCRC patients": {"system": "mCRC patients", "settings": "20 μg/Kg/day for 14 days, 1 to 3 cycles"}},
  "data": [
    {"molecule": "Bevacizumab: monoclonal antibody binding circulating VEGF-A", "values": [
      {"measurement": "intra-tumoral T-cell infiltration", "setting": "Renal Cell Carcinoma", "value": "augmented intra-tumoral T-cell infiltration"}
    ]},
    {"molecule": "O=P1(N(CCCl)CCCl)NCCCO1", "note": "(racemic) [cyclophosphamide, (RS)—N,N-bis(2-chloroethyl)-1,3,2-oxazaphosphinan-2-amine 2-oxide]", "values": [
      {"measurement": "effect on Treg cells", "setting": "Treg cells", "value": "significantly depleted Treg cells"}
    ]},
    {"molecule": "CNC(=O)c1cc(Oc2ccc(NC(=O)Nc3ccc(Cl)c(C(F)(F)F)c3)c(F)c2)ccn1", "note": "[regorafenib]", "values": [
      {"measurement": "clinical activity as single agent", "setting": "lung, pancreatic", "value": "modest clinical activity"}
    ]},
    {"molecule": "COc1cc2nccc(Oc3ccc(NC(=O)NC4CC4)c(Cl)c3)c2cc1C(N)=O", "note": "[Lenvatinib]", "values": [
      {"measurement": "clinical effect as monotherapy", "setting": "colorectal cancer", "value": "modest clinical effect"}
    ]},
    {"molecule": "B1", "values": [
      {"measurement": "number of APCs observed on the periphery of tumors", "setting": "mCRC patients", "value": "significantly increased"},
      {"measurement": "percentage of APCs in PBMCs", "setting": "mCRC patients; from 2.4%", "value": 8.8, "unit": "%"},
      {"measurement": "number of leukocytes in peripheral blood", "setting": "mCRC patients; from 5,900/mm^3", "value": "11,200 /mm^3"}
    ]}
  ]
}
